This passage reports solubility results from patent US7507823B2, “Process of making aripiprazole particles” (Bristol-Myers Squibb Company, priority 2004, dated 2009).

As a reminder, the solubility is how much of the substance goes into solution per volume.

The data set is described as follows: Solubility of aripiprazole in n-propanol. In kind it is physicochemical. As to conditions: organic solvent or mixture; solvent n-propanol (n-PrOH). How it is done: The solubility of aripiprazole in n-PrOH is low, only about 7 mg/ml. Therefore, a highly saturated solution could be produced with a very low solution concentration. At such low concentrations, the number of nucleation sites within the nozzle is low enough to prevent substantial blockages. When processing n-PrOH solutions at […], pressure fluctuations were reduced to a more satisfactory level of <35 bar. […] Water was again incorporated into the solution, in an attempt to produce the monohydrate. […] The sample was, however, anhydrous.

Each structure is given as a SMILES string. ≈ marks a conversion by molar mass, not a printed value.

With `O=C1CCc2ccc(OCCCCN3CCN(c4cccc(Cl)c4Cl)CC3)cc2N1` [aripiprazole, 7-(4-[4-(2,3-dichloropheny)-1-piperazinyl]-butoxy)-3,4-dihydro carbostyril], the solubility is around 7000 µg/mL (≈ 15.6 mM).
